Experimental data taken from publication PMC6271860, “Bioactive 30-Noroleanane Triterpenes from the Pericarps of Akebia trifoliata” (Molecules, 2014).
Values after ≈ are worked out from the molar mass of the structure shown. Where a name gives a salt, the structure may show the parent alone.

Legend:
[1] = test system: S. dysenteriae (CMCC51252); experiment: Antibacterial microdilution titre assay (resazurin), MIC; format: cell-based; settings: Shigella dysenteriae
Cytotoxicity, MTT method = settings: human
Experimental: (§1) These compounds were also tested for their in vitro cytotoxicity against three human tumor cell lines, A549 (human lung adenocarcinoma), HeLa (human cervical carcinoma) and HepG2 (human liver hepatocellular carcinoma), using the MTT method as described.
(§2) The three tumor cell lines were generously provided by Kunming Institute of Zoology, Chinese Academy of Sciences. The cytotoxic activities of the tested compounds were assayed according to the MTT method by using 96 well plates. Briefly, the cells were cultured in RPMI-1640 medium, supplemented with 10% fetal bovine serum in a humidified atmosphere with 5% CO2 at 37 °C. One hundred μL of adherent cells at the density of 5 × 10^4 cell/mL was seeded into each well of 96-well cell culture plates and incubated in 5% CO2 at 37 °C for 24 h to form a monolayer on the flat bottoms. Then, removed the supernatant per well and subsequently added with 100 μL of fresh medium and 100 μL of medium containing a test compound. The plate was then incubated in 5% CO2at 37 °C. After 72 h, 20 μL of 5 mg/mL MTT in DMSO was added into each well and incubated for 4 h. The supernatant per well was carefully removed and 150 μL of DMSO was added. The plate was then vortex shaken for 15 min to dissolve blue formazan crystals. The optical density (OD) of each well was measured on a Genois microplate reader (Tecan GENios, Männedorf, Switzerland) at the wavelength of 570 nm. All experiments were performed in triplicate and adriamycin was used as a positive control. In each experiment, each of the tumor cell lines was exposed to the test compound at concentrations of 50, 25, 12.5, 6.25, 3.125, 1.5625 µg/mL. The inhibitory rate of cell growth was calculated according to the following formula: Inhibition rate (%) = (ODcontrol− ODtreated)/ODcontrol× 100%. IC50 values were calculated by SPSS 16.0 statistic software. The values were based on three individual experiments and expressed as means ± standard deviation (SD).

S. aureus (CMCC26003) = experiment: Antibacterial microdilution titre assay (resazurin), MIC; settings: Gram-positive, 37 °C, 5–6 h
MRSA = experiment: as above; settings: for MIC: MRSA, Gram-positive, 37 °C, 5–6 h
B. cereus (CMCC63302) = experiment: as above; settings: Gram-positive, 37 °C, 5–6 h
B. subtilis (CMCC63501) = experiment: as above; settings: Gram-positive, 37 °C, 5–6 h
E. coli (CMCC44102) = experiment: as above; settings: Escherichia coli
[2] = test system: S. typhimurium (CMCC44102); experiment: as above; settings: Salmonella enterica
[3] = test system: A549 (human lung adenocarcinoma); experiment: Cytotoxicity, MTT method; settings: read-out: Cytotoxicity IC50, A549 cells, 72 h, mean ± SD (n = 3)
Experimental: as §1, §2

[4] = test system: HeLa (human cervical carcinoma); experiment: Cytotoxicity, MTT method; settings: read-out: Cytotoxicity IC50, HeLa cells, 72 h, mean ± SD (n = 3)
Experimental: as §1, §2

[5] = Cytotoxicity IC50, A549 cells, mean ± SD (n = 3)
[6] = Cytotoxicity IC50, HeLa cells, mean ± SD (n = 3)
[7] = Staphylococcus aureus, CMCC26003, S. aureus (CMCC26003)
[8] = Bacillus cereus, CMCC63302, B. cereus (CMCC63302)
[9] = Bacillus subtilis, CMCC63501, B. subtilis (CMCC63501)

SMILES	MIC [1] [µg/mL]	IC50 at 72 h (Cytotoxicity, MTT method) [µM]	IC50 at 72 h (Cytotoxicity, MTT method; [5]) [µM]	IC50 at 72 h (Cytotoxicity, MTT method; [6]) [µM]	MIC (S. aureus (CMCC26003); [7]) [µg/mL]	MIC (MRSA; Staphylococcus aureus) [µg/mL]	MIC (B. cereus (CMCC63302); [8]) [µg/mL]	MIC (B. subtilis (CMCC63501); [9]) [µg/mL]	MIC (E. coli (CMCC44102)) [µg/mL]	MIC [2] [µg/mL]	MIC (S. aureus (CMCC26003); S. aureus (CMCC26003)) [µg/mL]	MIC toward MRSA, fold stronger than the reference compound kanamycin (MRSA; MIC compared with kanamycin)	MIC (MRSA) [µg/mL]	MIC (B. cereus (CMCC63302); B. cereus (CMCC63302)) [µg/mL]	MIC (B. subtilis (CMCC63501); B. subtilis (CMCC63501)) [µg/mL]	IC50 [3] [µM]	IC50 [4] [µM]
CC1(O)CCC2(C(=O)O)CCC3(C)C(=CCC4C5(C)CC(O)C(O)C(C)(C)C5CCC43C)C2C1 (stereo not drawn) [Compound 1, 2α,3β,20α-trihydroxy-30-norolean-12-en-28-oic acid]	> 200	> 100	> 100	> 100	> 200	> 200	> 200	> 200	> 200	> 200							
C=C1CC[C@]2(C(=O)O)CC[C@]3(C)C(=CCC4[C@@]5(C)CC[C@@H](O)[C@](C)(CO)C5CC[C@]43C)C2C1 (stereo partly drawn) [Compound 6, quinatic acid]	> 200	> 100	> 100	> 100	> 200	> 200	50 (≈ 109 µM)	12.5 (≈ 27.4 µM)	> 200	> 200							
C=C1CC[C@]2(C(=O)O)CC[C@]3(C)C(=CCC4[C@@]5(C)CC[C@H](O)C(C)(C)C5CC[C@]43C)C2C1 (stereo partly drawn) [Compound 3, 3β-akebonoic acid]	> 200	52.9 ± 5.28	49.5 ± 8.64	28.6 ± 7.41	12.5 to 25 (≈ 28.4 to 56.7 µM)	12.5 to 25 (≈ 28.4 to 56.7 µM)	12.5 to 25 (≈ 28.4 to 56.7 µM)	12.5 to 25 (≈ 28.4 to 56.7 µM)	> 200	> 200	25 (≈ 56.7 µM)	about five-fold	25 (≈ 56.7 µM)	25 (≈ 56.7 µM)	12.5 (≈ 28.4 µM)		
CC1=C(C(=O)O)N2C(=O)[C@@H](NC(=O)[C@H](N)C3=CCC=CC3)[C@H]2SC1 [C, cefradine, reference compound]	12.5 (≈ 35.8 µM)				50 (≈ 143 µM)	> 200	200 (≈ 572 µM)	200 (≈ 572 µM)	12.5 (≈ 35.8 µM)	12.5 (≈ 35.8 µM)							
NC[C@H]1O[C@H](O[C@H]2[C@H](O)[C@@H](O[C@H]3O[C@H](CO)[C@@H](O)[C@H](N)[C@H]3O)[C@H](N)C[C@@H]2N)[C@H](O)[C@@H](O)[C@@H]1O [K, kanamycin sulfate, reference compound]	3.9				1.9	125	3.9	3.9	3.9	3.9							
C=C1CC[C@]2(C(=O)O)CC[C@]3(C)C(=CCC4[C@@]5(C)C[C@@H](O)[C@H](O)C(C)(C)C5CC[C@]43C)C2C1 (stereo partly drawn) [Compound 4, 2α,3β-dihydroxy-30-noroleana-12,20(29)-dien-28-oic acid]	> 200	14.3 ± 0.49	8.8	16.33 ± 0.12	200 (≈ 438 µM)	200 (≈ 438 µM)	50 (≈ 109 µM)	25 (≈ 54.7 µM)	> 200	> 200						8.77 ± 0.59	
C=C1CC[C@]2(C(=O)O)CC[C@]3(C)C(=CCC4[C@@]5(C)CC[C@@H](O)C(C)(C)C5CC[C@]43C)C2C1 (stereo partly drawn) [Compound 5, 3α-akebonoic acid]	> 200	10.4 ± 1.17	10.6 ± 0.69	5.6	> 200	> 200	25 (≈ 56.7 µM)	50 (≈ 113 µM)	> 200	> 200							5.61
C=C1CCC2(C(=O)O)CCC3(C)C(=CCC4C5(C)CC(O)C(O)C(C)(C=O)C5CCC43C)C2C1 (stereo not drawn) [Compound 2, 2α,3β-dihydroxy-23-oxo-30-norolean-12,20(29)-dien-28-oic acid]	> 200	> 100	> 100	> 100	> 200	> 200	> 200	> 200	> 200	> 200							
